Assay results published in patent US20090047218A1, “Method for producing albumin conjugates comprising an X-ray contrast medium as the active substance” (Albupharm Heidelberg GmbH & Co. KG, priority 2005, published 2009).

Assay: Stability of iodine-containing X-ray contrast medium against radiation (iodine-starch reaction)
Format: physicochemical
Settings: about 40 mg in 40 ml 0.1% starch solution
Protocol: Approximately 40 mg 2,3,5-triiodobenzoic acid (TIB) or another X-ray contrast medium that can be obtained commercially (diatrizoic acid or iotalamic acid etc.) is dissolved in 40 ml of a 0.1% starch solution while gently heating. 20 ml is in each case distributed to two Petri dishes (diameter 11.5 cm). Dish 1 is placed in full sunlight for 1 hour. Dish 2 is irradiated at a distance of 11 cm with a UV hand-held lamp (254 nm, 14 μW/cm^2).
This is even more significant because the energy of the UV irradiation (like the intensity of the irradiation source used) is approximately 100-fold lower than that of the X-ray irradiation of a computer tomograph.

## O=C(O)c1cc(I)cc(I)c1I [2,3,5-triiodobenzoic acid]
Dish 1, full sunlight for 1 hour
  colour of the solution (iodine-starch reaction) after exposure to daylight: still colourless
Dish 2, UV hand-held lamp 254 nm, 14 μW/cm^2, distance 11 cm
  colour of the solution (iodine-starch reaction) after UV irradiation: typical, intensive blue staining of the iodine-starch reaction
